Measured values from US7183260B2, “C-terminal modified oxamyl dipeptides as inhibitors of the ICE/ced-3 family of cysteine proteases” (Idun Pharmaceuticals, Inc., priority 1998, dated 2007).

Key:
Format in all cases: biochemical
Conditions in all cases: continuous assay 60 min, reaction initiated by adding enzyme to substrate-inhibitor mixture
[1] = target: T1, mICE (Mus musculus, UniProt P29452); experiment: Dissociation constant Ki and irreversible rate constant k3 for irreversible inhibitors (ICE)
T1 sequence (P29452 123-296 limits assumed): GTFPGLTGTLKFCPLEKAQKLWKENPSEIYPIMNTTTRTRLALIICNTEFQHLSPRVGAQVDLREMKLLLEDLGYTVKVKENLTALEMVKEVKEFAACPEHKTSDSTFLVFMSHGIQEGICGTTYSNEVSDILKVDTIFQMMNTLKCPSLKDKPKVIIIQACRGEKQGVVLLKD
T1 sequence (P29452 315-402 limits assumed): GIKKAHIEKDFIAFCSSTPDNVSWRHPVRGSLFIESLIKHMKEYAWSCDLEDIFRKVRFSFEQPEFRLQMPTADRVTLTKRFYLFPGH

[2] = target: T2, MCH-2 (Homo sapiens, UniProt P55212); experiment: Dissociation constant Ki and irreversible rate constant k3 for irreversible inhibitors (Mch2)
T2 sequence (P55212 24-179 limits assumed): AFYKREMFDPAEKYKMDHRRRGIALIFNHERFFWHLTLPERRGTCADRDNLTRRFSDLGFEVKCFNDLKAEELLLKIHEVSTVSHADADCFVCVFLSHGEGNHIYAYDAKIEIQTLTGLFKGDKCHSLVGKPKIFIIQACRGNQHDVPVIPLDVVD
T2 sequence (P55212 194-293 limits assumed): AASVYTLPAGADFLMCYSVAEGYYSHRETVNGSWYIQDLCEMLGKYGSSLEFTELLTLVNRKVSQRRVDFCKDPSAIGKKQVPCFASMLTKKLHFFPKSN

[3] = target: T3, CPP32 (Homo sapiens, UniProt P42574); experiment: Dissociation constant Ki and irreversible rate constant k3 for irreversible inhibitors (CPP32)
T3 sequence (P42574 29-175 limits assumed): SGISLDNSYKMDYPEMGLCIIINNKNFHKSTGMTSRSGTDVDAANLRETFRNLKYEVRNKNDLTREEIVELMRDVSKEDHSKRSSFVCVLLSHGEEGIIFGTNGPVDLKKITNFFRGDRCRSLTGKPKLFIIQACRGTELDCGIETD
T3 sequence (P42574 176-277 limits assumed): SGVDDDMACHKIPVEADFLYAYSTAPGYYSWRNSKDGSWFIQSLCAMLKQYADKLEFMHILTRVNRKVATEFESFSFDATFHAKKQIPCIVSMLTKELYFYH

[4] = target: MCH-5 (Homo sapiens, UniProt Q14790); experiment: Dissociation constant Ki and irreversible rate constant k3 for irreversible inhibitors (Mch5)
Chain of MCH-5 (Q14790 217-374 limits assumed, species assumed): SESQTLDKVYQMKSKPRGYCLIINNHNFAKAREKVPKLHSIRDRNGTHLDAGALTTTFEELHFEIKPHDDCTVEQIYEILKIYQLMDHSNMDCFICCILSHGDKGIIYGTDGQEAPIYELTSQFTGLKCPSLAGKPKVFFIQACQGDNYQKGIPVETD
Chain of MCH-5 (Q14790 385-479 limits assumed, species assumed): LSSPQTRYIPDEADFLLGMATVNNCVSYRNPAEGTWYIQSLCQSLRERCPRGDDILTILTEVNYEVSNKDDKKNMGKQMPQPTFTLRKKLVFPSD

SMILES | Ki [1] [nM] | mICE k3/Ki [1] | Ki [2] [nM] | MCH-2 k3/Ki [2] | CPP32 k3/Ki [3] | Ki [3] [nM] | Ki [4] [nM] | MCH-5 k3/Ki [4]
CC(C)[C@H](NC(=O)C(=O)NCc1ccccc1)C(=O)N[C@@H](CC(=O)O)C(=O)COc1c(F)c(F)cc(F)c1F [Example 79] | 6 | 1,800,000 moles^−1 seconds^−1 | 125 | 16,600 moles^−1 seconds^−1 | 21,000 moles^−1 seconds^−1 | 405 | 5 | 472,000 moles^−1 seconds^−1
CC(C)[C@H](NC(=O)C(=O)NCCc1ccccc1)C(=O)N[C@@H](CC(=O)O)C(=O)COc1c(F)c(F)cc(F)c1F [Example 80] | 182 | 77,100 moles^−1 seconds^−1 | 175 | 12,600 moles^−1 seconds^−1 | 13,400 moles^−1 seconds^−1 | 515 | 162 | 16,600 moles^−1 seconds^−1
CC(C)[C@H](NC(=O)C(=O)NC(c1ccccc1)c1ccccc1)C(=O)N[C@@H](CC(=O)O)C(=O)COc1c(F)c(F)cc(F)c1F [Example 81] | 54 | 201,000 moles^−1 seconds^−1 | 1150 | 1,430 moles^−1 seconds^−1 | 5,380 moles^−1 seconds^−1 | 882 | 36 | 48,600 moles^−1 seconds^−1
CC(C)[C@H](NC(=O)C(=O)Nc1ccccc1)C(=O)N[C@@H](CC(=O)O)C(=O)COc1c(F)c(F)cc(F)c1F [Example 82] | 7 | 1,490,000 moles^−1 seconds^−1 | 100 | 25,500 moles^−1 seconds^−1 | 36,000 moles^−1 seconds^−1 | 389 | 5 | 598,000 moles^−1 seconds^−1
CC(C)[C@H](NC(=O)C(=O)Nc1ccccc1-c1ccccc1)C(=O)N[C@@H](CC(=O)O)C(=O)COc1c(F)c(F)cc(F)c1F [Example 83] | 135 | 127,000 moles^−1 seconds^−1 | 85 | 31,700 moles^−1 seconds^−1 | 25,400 moles^−1 seconds^−1 | 251 | 30 | 65,300 moles^−1 seconds^−1
CC(C)[C@H](NC(=O)C(=O)Nc1ccccc1Cc1ccccc1)C(=O)N[C@@H](CC(=O)O)C(=O)COc1c(F)c(F)cc(F)c1F [Example 84] | 43 | 344,000 moles^−1 seconds^−1 | 82 | 25,300 moles^−1 seconds^−1 | 54,800 moles^−1 seconds^−1 | 367 | 24 | 105,000 moles^−1 seconds^−1
CC(C)[C@H](NC(=O)C(=O)Nc1nc2ccccc2[nH]1)C(=O)N[C@@H](CC(=O)O)C(=O)COc1c(F)c(F)cc(F)c1F [Example 88] | 359 | 27,400 moles^−1 seconds^−1 | 1430 | 1,840 moles^−1 seconds^−1 | 3,130 moles^−1 seconds^−1 | 3130 | 128 | 20,800 moles^−1 seconds^−1
CC(C)[C@H](NC(=O)C(=O)NC12CC3CC(CC(C3)C1)C2)C(=O)N[C@@H](CC(=O)O)C(=O)COc1c(F)c(F)cc(F)c1F [Example 89] | 52 | 184,000 moles^−1 seconds^−1 | 152 | 10,700 moles^−1 seconds^−1 | 6,330 moles^−1 seconds^−1 | 1510 | 40 | 59,900 moles^−1 seconds^−1
CC(C)[C@H](NC(=O)C(=O)Nc1ccccc1F)C(=O)N[C@@H](CC(=O)O)C(=O)COc1c(F)c(F)cc(F)c1F [Example 90] | 147 | 58,500 moles^−1 seconds^−1 | 221 | 11,200 moles^−1 seconds^−1 | 5,560 moles^−1 seconds^−1 | 2270 | 40 | 49,600 moles^−1 seconds^−1
CC(C)[C@H](NC(=O)C(=O)Nc1ccc(F)cc1)C(=O)N[C@@H](CC(=O)O)C(=O)COc1c(F)c(F)cc(F)c1F [Example 91] | 16 | 906,000 moles^−1 seconds^−1 | 59 | 121,000 moles^−1 seconds^−1 | 36,300 moles^−1 seconds^−1 | 758 | 15 | 338,000 moles^−1 seconds^−1
CC(C)[C@H](NC(=O)C(=O)Nc1ccccc1C(F)(F)F)C(=O)N[C@@H](CC(=O)O)C(=O)COc1c(F)c(F)cc(F)c1F [Example 92] | 11 | 1,044,000 moles^−1 seconds^−1 | 12 | 261,000 moles^−1 seconds^−1 | 57,400 moles^−1 seconds^−1 | 175 | 6 | 41,000 moles^−1 seconds^−1
CC(C)[C@H](NC(=O)C(=O)Nc1ccccc1C(C)(C)C)C(=O)N[C@@H](CC(=O)O)C(=O)COc1c(F)c(F)cc(F)c1F [Example 93] | 6 | 2,052,000 moles^−1 seconds^−1 | 41 | 112,000 moles^−1 seconds^−1 | 27,700 moles^−1 seconds^−1 | 353 | 3 | 1,165,000 moles^−1 seconds^−1
CCCCCCCc1ccc(NC(=O)C(=O)N[C@H](C(=O)N[C@@H](CC(=O)O)C(=O)COc2c(F)c(F)cc(F)c2F)C(C)C)cc1 [Example 94] | 24 | 657,000 moles^−1 seconds^−1 | 59 | 50,000 moles^−1 seconds^−1 | 11,200 moles^−1 seconds^−1 | 1110 | 12 | 155,000 moles^−1 seconds^−1
COc1ccccc1NC(=O)C(=O)N[C@H](C(=O)N[C@@H](CC(=O)O)C(=O)COc1c(F)c(F)cc(F)c1F)C(C)C [Example 95] | 6 | 2,068,000 moles^−1 seconds^−1 | 88 | 61,500 moles^−1 seconds^−1 | 10,800 moles^−1 seconds^−1 | 1090 | 3 | 2,680,000 moles^−1 seconds^−1
CC(C)[C@H](NC(=O)C(=O)Nc1ccccn1)C(=O)N[C@@H](CC(=O)O)C(=O)COc1c(F)c(F)cc(F)c1F [Example 100] | 206 | 36,000 moles^−1 seconds^−1 | 188 | 11,600 moles^−1 seconds^−1 | 9,850 moles^−1 seconds^−1 | 2250 | 157 | 19,500 moles^−1 seconds^−1
CC(C)[C@H](NC(=O)C(=O)Nc1ccncc1)C(=O)N[C@@H](CC(=O)O)C(=O)COc1c(F)c(F)cc(F)c1F [Example 101] | 22600 | 912 mol⁻¹ s⁻¹ | 641 | 5,580 moles^−1 seconds^−1 | 511 mol⁻¹ s⁻¹ | 26100 | 1550 | 1,140 moles^−1 seconds^−1
CC(C)[C@H](NC(=O)C(=O)Nc1c(F)c(F)nc(F)c1F)C(=O)N[C@@H](CC(=O)O)C(=O)COc1c(F)c(F)cc(F)c1F [Example 102] | 14 | 1,220,000 moles^−1 seconds^−1 | 22 | 170,000 moles^−1 seconds^−1 | 153,000 moles^−1 seconds^−1 | 127 | 10 | 389,000 moles^−1 seconds^−1
CC(C)[C@H](NC(=O)C(=O)Nc1cnccn1)C(=O)N[C@@H](CC(=O)O)C(=O)COc1c(F)c(F)cc(F)c1F [Example 103] | 5.3 |  | 17 |  |  | 60 | 4.7 | 
CC(C)[C@H](NC(=O)C(=O)NC1CCCc2ccccc21)C(=O)N[C@@H](CC(=O)O)C(=O)COc1c(F)c(F)cc(F)c1F (stereo partly drawn) [Example 104] | 4.5 | 2,320,000 moles^−1 seconds^−1 | 13 | 160,000 moles^−1 seconds^−1 | 98,600 moles^−1 seconds^−1 | 84 | 5.2 | 456,000 moles^−1 seconds^−1
CC(C)[C@H](NC(=O)C(=O)Nc1ccccc1Cl)C(=O)N[C@@H](CC(=O)O)C(=O)COc1c(F)c(F)cc(F)c1F [Example 105] | 8.4 | 1,540,000 moles^−1 seconds^−1 | 26 | 161,000 moles^−1 seconds^−1 | 96,300 moles^−1 seconds^−1 | 122 | 52 | 234,000 moles^−1 seconds^−1
